Holding throughout (assay type): cell-based, human
For assay [1], the system named is MCF-7 cells. Put plainly: Alamar Blue/raptinal 24-hour cell death assay, MCF-7. The settings on record: for IC50: 24-hour incubation, Alamar blue fluorescence, normalized to vehicle and raptinal. As to the method:
FIG. 4. […] MCF7 (ERα) cells, 24 hour incubation, read out via Alamar Blue Fluorescence, Dead Control: Raptinal, n=3 (A, B). […] Orthotopic Mouse Xenograft breast cancers of TYS cells, Visualization by bioluminescent imaging. Treatment: 40 mg/kg daily (−)-105 for 3 days either by oral gavage or by intraperitoneal injection.
ALAMAR BLUE/RAPTINAL ASSAY: Live cells maintain a reducing environment. The non-fluorescent cell permeable ingredient of Alamar Blue® (resazurin) is taken up by cells. In living cells, it is reduced to the fluorescent compound resorufin. Using a standard curve of cell number versus fluorescence the number of live cells in a test sample can be determined. At high concentrations raptinal kills 100% of cells. The vehicle in which the test compound is dissolved is not toxic. Thus, after subtracting the blank for medium alone, the fluorescence reading for vehicle corresponds to 100% viable cells and the signal for raptinal corresponds to 0% viable cells. While this assay provides a less direct measurement of cell death than the trypan blue assay, it is more easily scaled up to large numbers of samples.
ALAMAR BLUE RAPTINAL ASSAYS: Cells were plated at 4,000-10,000 cells/well (96 well plate), usually in 50 μl of medium. After about 18 hours, an additional 50 μl of medium containing 2× the desired final concentration of the test compound (C-105) was added to each well. After 24 hours Alamar Blue reagent was added and fluorescence in the wells was read (BMG PheraStar or Molecular Devices Spectra Max M3 Microplate Reader). % relative death was determined by setting the reading for raptinal-treated cells to 100% dead cells and the reading for vehicle-treated cells to 0% dead cells.
Preparative gram-scale chiral separation of (±)-1 yields enantiopure (R)-1 and (S)-1 with opposite optical rotations (Scheme 5). […] Values were obtained after 24-hour incubation utilizing Alamar blue fluorescence assay normalized to live and death controls (vehicle and raptinal treated). (S)-1 IC50 is >1 μM. Error shown as S.E.M.

The subject of assay [2] is MCF-7 cells. Put plainly: Dose-dependent death of MCF-7 cells (FIG. 10).
Another assay deals with TDG cells. Description: Trypan Blue exclusion cell death assay, TDG / TDG-Luc. As to conditions: 24 hours. An excerpt:
(§1) TRYPAN BLUE: For decades, viable cells have been measured by their ability to exclude the dye Trypan Blue. […] Dead cells, which have lost membrane integrity, take up the dye and are blue. Thus, the percentage of dead cells is the percentage of cells that are Trypan Blue positive out of the total cell population. Quantitative assessment of Trypan Blue uptake uses a cell counter from Fisher. Since the assay is instrument based, there is no observer bias in determining the percentage of Trypan Blue positive cells.
(§2) TRYPAN BLUE ASSAYS: Assays are performed on cells in 6 well plates: 300,000 cells are plated in each well of a 6-well plate in 3 ml of medium. After 24 hours, the DMSO vehicle or the indicated compound is added (in 1000th of the vol.) The cells incubated for an additional 24 hours, and then harvested in 0.25 ml of trypsin, followed after harvest by 0.75 ml of medium. The cells are spun down and resuspended in 100-200 μl of medium left that is over the cell pellet (resuspend cells by pipetting up and down a few times). Add 10 μl to 10 μl of trypan blue. Then 10 μl is inserted into the counting slide. After inserting the slide into the Fisher TC20 counting is automatic (these many cells are needed because an accurate ratio of Trypan Blue positive to Trypan Blue negative cells requires about 200 cells in the field the instrument counts).
The Trypan Blue cell death assay was used to evaluate the ability of the active enantiomer of C-105 [(−)-105] to kill ERα positive TDG-Luc cells. For all studies, 300,000 TDG-Luc cells/well in 10% FBS were plated in a 6-well plate in triplicate. 24 hours after plating, the indicated concentrations the active enantiomer of (−)-105, or BHPI (top) ICI, or OHT (Lower left) or (+)-105 (lower right) were added. After 24 hours, the cells were harvested, and the % dead cells was determined by automated Trypan Blue exclusion using the Countess II automated hemocytometer. Percentage of viable cells was calculated by doing 100-(Cell Death %). (n=3±SEM).
TDG cells were incubated for 24 hours with 75 nM of BHPI or 75 nM of each of the indicated test compounds: 4, 6 and (±)-105 (enantiomers not separated). Cell death was determined using the instrument-based Trypan Blue exclusion assay. Structures are in the Synthesis section. […] (n=3±SEM).

A further assay has as its system TYS cells. Description: Trypan Blue exclusion cell death assay, TYS / TYS-Luc. The settings on record: 24 hours.
Text: as §1, §2
The Trypan Blue cell death assay was used to evaluate the ability of the active enantiomer of 105 (−) [(−)-105] to kill ERα positive MCF-7 and TYS-Luc, human breast cancer cells. 300,000 T47D cells/well in 10% FBS were plated in a 6-well plate in triplicate. 24 hours after plating, the indicated concentrations of BHPI, or the active enantiomer 105 (−) of C-105 [(−)-105] was added. After 24 hours, the cells were harvested, and the % dead cells was determined by automated Trypan Blue exclusion using the Countess II automated hemocytometer. Percentage of viable cells was calculated by doing 100-(Cell Death %). (n=3±SEM).
TYS cells were incubated for 24 hours with 35 nM of BHPI or 35 nM of each of the indicated test compounds: 2, 4, and 105. Cell death was determined using the instrument-based Trypan Blue exclusion assay.
TYS cells were incubated for 24 hours with 50 nM of BHPI or 50 nM of each of the indicated test compounds: 4, 6 and 105. Cell death was determined using the instrument-based Trypan Blue exclusion assay. (n=3±SEM).

A further assay relates to T47D cells. Description: Trypan Blue exclusion cell death assay, T47D / T47D-Luc. The settings on record: 24 hours.
Text: as §1
as §2, with “After inserting the slide into the Fisher TC20 counting is automatic (these many cells are needed because an accurate ratio of Trypan Blue positive to Trypan Blue negative cells requires about 200 cells in the field the instrument counts).” left out
The Trypan Blue cell death assay was used to compare the ability of the active (−) enantiomer of C-105 and BHPI to kill estrogen receptor α (ERα) positive T47D, human breast cancer cells expressing luciferase (T47D-Luc cells). […] After 24 hours, the cells were harvested, and the % dead cells was determined by automated Trypan Blue exclusion using the Countess II automated hemocytometer. Percentage of viable cells was calculated by doing 100-(Cell Death %). […]
T47D cells were incubated for 24 hours with 75 nM of BHPI or 75 nM of each of the indicated test compounds: 4 and 6. Cell death was determined using the instrument-based Trypan Blue exclusion assay. […]
T47D cells were treated for 24 hours with 100 nM BHPI, or with 100 nM of each of the test compounds: 6, 8, and 105. […] Cell death was determined using the instrument-based Trypan Blue exclusion assay. […]

On to `O=C1Nc2c(C(F)(F)F)cccc2C1(c1ccc(O)cc1)c1ccc(OC(F)(F)F)cc1` (racemic) [(±)-105, 3-(4-hydroxyphenyl)-3-(4-(trifluoromethoxy)phenyl)-7-(trifluoromethyl)indolin-2-one], for which half-maximal inhibition in the assay with MCF-7 cells [1] (Homo sapiens, MCF7) (IC50) was put at 42.6 nM. The cell death entry with MCF-7 cells [2] was “inactive”. Besides, the “ability to kill TDG cells compared to BHPI” value in the assay on TDG cells (75 nM) is listed as “greatly increased ability to kill”. Moreover, the “ability to kill TYS cells compared to BHPI” value with TYS cells (35 nM) is given as “greatly increased ability to kill”; with TYS cells (50 nM) it was “increased ability to kill”. Also, the “ability to kill T47D cells compared to BHPI” value with T47D cells (100 nM) was “increased ability to kill”.
Consider `O=C1Nc2c(C(F)(F)F)cccc2C1(c1ccc(O)cc1)c1ccc(OC(F)(F)F)cc1` (single isomer, unassigned; (-)) [(−)-105, 3-(4-hydroxyphenyl)-3-(4-(trifluoromethoxy)phenyl)-7-(trifluoromethyl)indolin-2-one], for which, in the assay with MCF-7 cells [1] (listed as (R)-1), the concentration for half-maximal inhibition (IC50) – broadly, the concentration needed to halve the response being measured – is 20.3 nM. In addition, the “ability to kill compared with BHPI and 01-15 (FIG. 4B)” value with MCF-7 cells [1] (24 hour incubation, dead control raptinal) was “superior to BHPI and 01-15”. Further, in the assay with MCF-7 cells [2], the cell death entry is listed as “induces dose-dependent death”. In addition, the “killing of TDG-Luc cells, dose response” value in the assay with TDG cells (TDG-Luc) was “superior to BHPI and current endocrine therapies”. Moreover, the “killing of TYS-Luc cells, dose response” value with TYS cells (TYS-Luc) is reported as “superior to BHPI”. Further, the “killing of T47D cells, dose response” value in the assay with T47D cells (T47D-Luc) is recorded as “superior to BHPI”.
